# According to paper doi:10.1101/2024.12.25.630315 (bioRxiv, 2024):
# System: HT1376 tumors
# Assay: EV therapy response and PET target engagement, HT1376 xenografts
# Assay type: in vivo, mouse
# Method: Mice with tumor volume of ~100-150 mm^3 were injected with ~[…] (7.4 MBq) of [^68Ga]AJ647 in […] of 5% ethanol in saline intravenously and anesthetized under 2.5% isoflurane. PET-CT images were acquired at 60 minutes after radiotracer injection at 5 min/bed in an ARGUS small-animal PET/CT scanner (Sedecal, Madrid, Spain) as described (n=3 unless otherwise noted). PET-MR images were acquired on a simultaneous 7T Bruker PET-MR scanner. Dynamic imaging was conducted to evaluate pharmacokinetics of [^68Ga]AJ647. [^68Ga]AJ647 was injected (with help of catheter) after mice was anesthetized under 2.5% isoflurane on the equipment bed. All PET data were reconstructed using the two-dimensional ordered subsets-expectation maximization algorithm (2D-OSEM) and corrected for radioactive decay and dead time. The SUV values were calculated by finding percent of injected activity (%IA) based on a calibration factor obtained from a known radioactive quantity, then normalizing by mice weight. […] For change in accessible Nectin-4 levels following EV treatment, ΔSUV was calculated by subtracting baseline (pre-treatment) uptake from post-therapy uptake of [^68Ga]AJ647. Target engagement was quantified by normalizing this change by initial SUV in same subject controls. […] Mice body weight and tumor measurements were recorded until saline group tumors reached 1500 mm^3 average size. […] Briefly, the percentage change in volume relative to baseline: % tumor volume change (ΔVolt) = 100% × ((Vt -[…]). BestResponse was the lowest ΔVolt for t ≥ 10 days. For each time t, the average ΔVolt from t = 0 to t was calculated, with the BestAvgResponse defined as the lowest average ΔVolt for t ≥ 10 days. Modified response criteria (mRECIST), adapted from RECIST21, were as follows: mCR (BestResponse < -95%, BestAvgResponse < -40%), mPR (BestResponse < -50%, BestAvgResponse < -20%), mSD (BestResponse < 35%, BestAvgResponse < 30%), and mPD (all others). We defined mPD as non-responders (0 response) and stable disease or better as responders (1 response). […]
substance,measurement,setting,value
enfortumab vedotin [EV],share of mice with less than 50% target engagement,"EV 6 and 15 mg/kg groups, day 6 PET",50%
same,"responders (mRECIST, stable disease or better)","EV-treated mice with higher target engagement, irrespective of dose",7/8
same,"responders (mRECIST, stable disease or better)",EV-treated mice with less than 30% target engagement,0/12
